Broadly, the pIC50 is the IC50 on a negative log10 scale, so that one unit is a factor of ten.

This is an account of results in BindingDB's records for patent US20250042903 (H. Lee Moffitt Cancer Center and Research Institute, 2025).

This assay addresses Cyclin-dependent kinase 12 (Homo sapiens, UniProt Q9NYV4). Description: Not found.
Description: Not found

pIC50: −log10 of the molar value.

Chain of Cyclin-dependent kinase 12 (Q9NYV4 whole entry): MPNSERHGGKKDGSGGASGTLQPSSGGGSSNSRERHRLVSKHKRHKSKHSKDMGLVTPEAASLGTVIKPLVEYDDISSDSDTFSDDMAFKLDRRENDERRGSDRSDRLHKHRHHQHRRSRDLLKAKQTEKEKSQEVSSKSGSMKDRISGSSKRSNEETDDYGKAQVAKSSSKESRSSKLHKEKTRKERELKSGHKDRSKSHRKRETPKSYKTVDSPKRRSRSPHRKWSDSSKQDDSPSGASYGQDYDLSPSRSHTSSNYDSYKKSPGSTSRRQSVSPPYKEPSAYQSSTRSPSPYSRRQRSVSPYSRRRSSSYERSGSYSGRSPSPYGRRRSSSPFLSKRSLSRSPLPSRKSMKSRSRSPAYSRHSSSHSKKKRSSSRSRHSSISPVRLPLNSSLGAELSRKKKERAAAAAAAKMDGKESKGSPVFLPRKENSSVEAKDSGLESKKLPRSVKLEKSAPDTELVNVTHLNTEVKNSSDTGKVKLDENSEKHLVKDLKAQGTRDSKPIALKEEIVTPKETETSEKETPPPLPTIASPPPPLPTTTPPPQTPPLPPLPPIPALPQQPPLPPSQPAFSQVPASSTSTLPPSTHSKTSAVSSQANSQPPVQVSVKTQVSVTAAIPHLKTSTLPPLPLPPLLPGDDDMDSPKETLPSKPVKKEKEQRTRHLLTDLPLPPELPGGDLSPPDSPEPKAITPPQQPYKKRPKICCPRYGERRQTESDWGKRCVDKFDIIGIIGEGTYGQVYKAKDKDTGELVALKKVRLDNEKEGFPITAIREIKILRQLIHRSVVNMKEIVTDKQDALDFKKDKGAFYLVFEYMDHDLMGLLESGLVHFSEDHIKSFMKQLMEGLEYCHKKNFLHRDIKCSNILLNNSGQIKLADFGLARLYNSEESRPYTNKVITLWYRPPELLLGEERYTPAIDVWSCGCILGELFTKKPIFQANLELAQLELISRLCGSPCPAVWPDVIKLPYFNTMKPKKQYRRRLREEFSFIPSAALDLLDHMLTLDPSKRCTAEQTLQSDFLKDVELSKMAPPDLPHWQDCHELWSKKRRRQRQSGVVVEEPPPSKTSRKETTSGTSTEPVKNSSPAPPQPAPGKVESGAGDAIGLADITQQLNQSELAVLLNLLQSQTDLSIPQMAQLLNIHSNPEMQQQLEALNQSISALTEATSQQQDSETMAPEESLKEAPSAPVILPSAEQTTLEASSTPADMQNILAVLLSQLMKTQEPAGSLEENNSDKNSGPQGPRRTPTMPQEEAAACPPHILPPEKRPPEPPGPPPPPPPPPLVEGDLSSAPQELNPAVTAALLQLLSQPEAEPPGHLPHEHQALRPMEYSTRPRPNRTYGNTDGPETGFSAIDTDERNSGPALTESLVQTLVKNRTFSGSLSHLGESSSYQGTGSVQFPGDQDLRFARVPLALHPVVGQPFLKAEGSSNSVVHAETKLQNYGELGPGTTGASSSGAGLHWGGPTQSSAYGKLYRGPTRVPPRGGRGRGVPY

`FC(F)N1CC(C2C=NN3C(NCc4nc5cc(Cl)c(Cl)cc5[nH]4)=NC(N4CCOCC4)=NC23)C=N1` (configuration not stated) [US20250042903, Compound 2] showed a pIC50 of 6.58.
In the case of `CN1CC(C2C=NN3C(NCc4nc5cc(Cl)c(Cl)cc5[nH]4)=NC(N4CCOCC4)=NC23)C=N1` (configuration not stated) [US20250042903, Compound 1], the negative logarithm of the IC50 (pIC50) is 6.26.
